US20210022342A1, “THE USE OF SAFENERS TO IMPROVE RESISTANCE OF RICE CROP TO HERBICIDES” (Adama Agan Ltd., priority 2018, published 2021)

Assays:
Type in all cases: in vivo
[1] = tested on: wild type rice (Non-Traited Rice); assay: Quizalofop dose response with or without isoxadifen, regrowth, wild type rice; details: calculated effect of safener alone, quizalofop 5.2 g/ha
[2] = tested on: ACCase inhibitor resistant rice seeds (ML0831265-01493 (ATCC deposit PTA-12933, mutation G2096S)); assay: Safener seed treatment with propaquizafop or quizalofop: regrowth of resistant rice
Experimental: (§1) Seeds of a proprietary ACCase resistant rice variety, i.e. RTA1, was used. RTA1, ML0831265-01493 (ATCC deposit PTA-12933, mutation G2096S) variety rice seeds were supplied by RiceTec. RTA1 rice cultivar contains a single mutation in the ACCase gene that confer ACCase resistance. The mutation makes the enzyme insensitive to quizalofop.
(§2) Mutant rice seeds were planted in commercial greenhouse soil mix in 10×10×10 cm plastic pots. 250 mL of soil was put into each pot, then the seeds were placed on top of the soil and the seeds were covered with 100-150 mL of soil. Approximately 8-10 seeds were planted per pot. The pots were then watered with 100 mL of a mixture of Miracle Grow and Fertiplus (iron supplement). The pots were placed in the greenhouse (38° C./20° C. day/night, 14 h photoperiod with supplemental light). The average light intensity in the greenhouse was 150 μM/m^2/sec.
Plants were grown until 10 days after planting and then the pots were transferred to trays and the plants were grown under water. :Plants were treated when they reached the 3-5 leaf stage. […]
(§3) Four days after treatment, the tops of the plants were cut off so that approximately 2.5 cm of plant from the top of the soil remain. The plants were allowed to regrow for 3 days at which time the amount of regrowth was weighed by measuring the amount of fresh weight of tissue that regrew. Comparing the weight of regrowth of shoots after cutting indicates the level of phytotoxicity the herbicide had on the mutant rice plant and the increased level of resistance of the mutant rice to the herbicide when the herbicide was applied in combination with the safener.
The safeners were also applied in various w/w ratios of the ACCase inhibiting herbicides to the rice seeds.

[3] = tested on: mutant rice (ML0831265-01493, ATCC deposit PTA-12933, mutation G2096S); assay: Tank mixes of safeners with propaquizafop or quizalofop: regrowth of mutant rice
Experimental: as §1, §2
Plants were grown until 10 days after planting and then the pots were transferred to trays and the plants were grown under water. :Plants were treated when they reached the 3-5 leaf stage.
Safeners were tank mixed with the herbicide in the spray bottle.
as §3
The safeners were applied in various w/w ratios with the ACCase inhibiting herbicides to the rice plant.

weedy rice = assay: Regrowth of weedy rice after quizalofop ethyl; details: at the rates tested
Source text: The amount of plant regrowth observed for the ACCase resistant rice is compared to the amount of regrowth observed for the weedy rice. The weedy rice was killed by quizalofop ethyl at the rates tested, so there was no regrowth.

mutant rice = assay: Regrowth of mutant rice under low and high light intensity
Source text: as §3

[4] = tested on: herbicide resistant rice crop (G2096S substitution, ML0831265-01493); assay: Quizalofop dose response with or without isoxadifen, regrowth, herbicide resistant rice
Experimental: Four days after treatment, the tops of the plants were cut off so that approximately 2.5 cm of plant from the top of the soil remain. The plants were allowed to regrow for 3 days at which time the amount of regrowth was weighed by measuring the amount of fresh weight of tissue that regrew.
The improvement in regrowth was calculated by subtracting the regrowth from a) wild type rice and wild type rice with isoxadifen; b) herbicide resistant rice; and c) herbicide resistant rice and isoxadifen.
Calculations were done for each application rate of quizalofop. The efficacy of safener alone and mutation alone on decreasing herbicide effect/increasing herbicide resistance were calculated. The relative fresh weight re-growth is the percentage of activity (for Colby).
The re-growth data was implemented in curve and the synergistic effect was calculated.
in which E represents the percentage of regrowth expected for the application of safener on mutant rice crop at the defined doses of herbicide. X is the percentage of regrowth for the application of safener on wildtype rice crop at the defined doses of herbicide. Y is the percentage of regrowth for mutant rice crop at the defined doses of herbicide without safener application. When the percentage of regrowth observed for the application of safener on mutant rice crop at the defined doses of herbicide is greater than expected as calculated using the Colby equation, there is a synergistic effect.

[5] = tested on: HPPD resistant rice variety; assay: HPPD herbicides with isoxadifen, regrowth of HPPD resistant mutant rice
Experimental: The rice cultivar contains mutation(s) in the HPPD gene which makes the enzyme insensitive to mesotrione and/or tembotrione and/or isoxaflutole.
Seed of HPPD resistant rice variety is planted in a commercial greenhouse soil mix in 10×10×10 cm plastic pots. 250 mL of soil is put into each pot, then the seed is placed on top of the soil and the seed is covered with 100-150 mL of soil. Approximately 8-10 seeds are planted per pot. The pots are then watered with 100 mL of a mixture of Miracle Grow and Fertiplus (iron supplement). The pots are placed in the greenhouse (38° C./20° C. day/night, 14 h photoperiod with supplemental light). The average light intensity in the greenhouse was 150 μM/m^2/sec.
Plants are grown until 10 days after planting and then the pots are transferred to trays and plants are grown under water. Plants are treated when they reach the 3-5 leaf stage.
Generally, plants are treated with 50-250 g/ha of mesotrione or tembotrione or isoxaflutole through a moving nozzle spray system in a spray volume of 200 l/ha or 187 l/ha. Isoxadifen is tank mixed with the herbicide in the spray bottle. The weight ratio of the safener to the herbicide in the tank mix is from 1:1 to 1:5.
Four days after reatment, the tops of the plants are cut off to approximately 3 cm from the top of the soil. The plants are allowed to regrow for 7 days at which time the amount of regrowth is measured by cutting any growth above 3 cm above the top of soil and weighing the tissue that regrew.
Efficacy test is conducted to determine the effect of mesotrione on mutant rice in the presence of isoxadifen.
The weight the regrown shoot on mutant rice applied with mesotrione is compared with the weight of regrown shoot on mutant rice applied with mesotrione and isoxadifen at various rates.

[6] = isoxaflutole with isoxadifen vs same mutant rice not treated with isoxadifen
[7] = mesotrione with isoxadifen vs same mutant rice not treated with isoxadifen
[8] = tembotrione with isoxadifen vs same mutant rice not treated with isoxadifen

SMILES: CCOC(=O)[C@@H](C)Oc1ccc(Oc2cnc3cc(Cl)ccc3n2)cc1 [Quizalofop, quizalofop P-ethyl]
- Efficacy at ED50 of mutant- 5.2 g/ha (%) [1]: 26%
- Regrowth (fresh weight mg) ([2]; quizalofop, seeds without safener): 107 mg
- Regrowth (fresh weight mg) ([3]; quizalofop 40 g/ha, no safener): 70 mg
- Effect on weedy rice (regrowth) (weedy rice): killed
- inhibition of growth of the mutant rice (mutant rice; high light intensity (800-1000 uM/m2/sec), 40 g/ha quizalofop, no safener): no inhibition of growth
- reduction in growth of the mutant rice (mutant rice; high light intensity, 70 g/ha quizalofop, no safener): over 80%
- Regrowth (mg FW) (mutant rice; high light intensity, no safener, herbicide 30 g/ha): 447 mg FW
- Regrowth (mg FW) (mutant rice; high light intensity, no safener, herbicide 40 g/ha): 533 mg FW
- Regrowth (mg FW) (mutant rice; high light intensity, no safener, herbicide 50 g/ha): 220 mg FW
- Regrowth (mg FW) (mutant rice; high light intensity, no safener, herbicide 60 g/ha): 107 mg FW
- Regrowth (mg FW) (mutant rice; high light intensity, no safener, herbicide 70 g/ha): 76.7 mg FW
- Regrowth (mg FW) (mutant rice; high light intensity, with safener (isoxadifen), herbicide 30 g/ha): 630 mg FW
- Regrowth (mg FW) (mutant rice; high light intensity, with safener (isoxadifen), herbicide 40 g/ha): 533 mg FW
- Regrowth (mg FW) (mutant rice; high light intensity, with safener (isoxadifen), herbicide 50 g/ha): 603 mg FW
- Regrowth (mg FW) (mutant rice; high light intensity, with safener (isoxadifen), herbicide 60 g/ha): 427 mg FW
- Regrowth (mg FW) (mutant rice; high light intensity, with safener (isoxadifen), herbicide 70 g/ha): 540 mg FW
- reduction in growth of the mutant rice (mutant rice; low light intensity (150 uM/m2/sec), 40 g/ha quizalofop, no safener): 80%
- Regrowth (mg FW) (mutant rice; low light intensity, no safener, herbicide 30 g/ha): 30 mg FW
- Regrowth (mg FW) (mutant rice; low light intensity, no safener, herbicide 40 g/ha): 0 mg FW
- Regrowth (mg FW) (mutant rice; low light intensity, no safener, herbicide 50 g/ha): 0 mg FW
- Regrowth (mg FW) (mutant rice; low light intensity, no safener, herbicide 60 g/ha): 0 mg FW
- Regrowth (mg FW) (mutant rice; low light intensity, no safener, herbicide 70 g/ha): 0 mg FW
- Regrowth (mg FW) (mutant rice; low light intensity, with safener (isoxadifen), herbicide 30 g/ha): 117 mg FW
- Regrowth (mg FW) (mutant rice; low light intensity, with safener (isoxadifen), herbicide 40 g/ha): 100 mg FW
- Regrowth (mg FW) (mutant rice; low light intensity, with safener (isoxadifen), herbicide 50 g/ha): 150 mg FW
- Regrowth (mg FW) (mutant rice; low light intensity, with safener (isoxadifen), herbicide 60 g/ha): 50 mg FW
- Regrowth (mg FW) (mutant rice; low light intensity, with safener (isoxadifen), herbicide 70 g/ha): 30 mg FW
- Calculated efficacy base on Colby (%) ([4]; expected for mutant & safener, quizalofop 5.2 g/ha): 63%
- additive effect of safener and mutation, increase in ED50 ([4]; expected, compared to wildtype rice without safener): 5.1 fold
- observed increase in ED50 ([4]; herbicide resistant rice with safener compared to wildtype rice without safener): 31.4 fold
- Observed efficacy (%) ([4]; mutant & safener, quizalofop 5.2 g/ha): 92%
- Efficacy at ED50 of mutant- 5.2 g/ha (%) ([4]; mutant alone, quizalofop 5.2 g/ha): 50%
- increase in tolerance to herbicide (ED50) by the mutation ([4]; mutant rice vs wildtype rice, no safener): 2.4 fold

SMILES: O=C(O)C1=NOC(c2ccccc2)(c2ccccc2)C1 [Isoxadifen, isoxadifen]
- level of resistance of the mutant rice to isoxaflutole [5, 6]: significantly increases the level of resistance
- phytotoxicity of isoxaflutole on the mutant rice [5, 6]: significantly reduces the phytotoxicity
- level of resistance of the mutant rice to mesotrione [5, 7]: significantly increases the level of resistance
- phytotoxicity of mesotrione on the mutant rice [5, 7]: significantly reduces the phytotoxicity
- level of resistance of the mutant rice to tembotrione [5, 8]: significantly increases the level of resistance
- phytotoxicity of tembotrione on the mutant rice [5, 8]: significantly reduces the phytotoxicity
- Regrowth (fresh weight mg) ([2]; propaquizafop, safener seed treatment 0.5 g/kg of seed): 133 mg
- Regrowth (fresh weight mg) ([2]; propaquizafop, safener seed treatment 1 g/kg of seed): 170 mg
- Regrowth (fresh weight mg) ([2]; propaquizafop, safener seed treatment 2 g/kg of seed): 298 mg
- Regrowth (fresh weight mg) ([2]; quizalofop, safener seed treatment 0.5 g/kg of seed): 165 mg
- Regrowth (fresh weight mg) ([2]; quizalofop, safener seed treatment 1 g/kg of seed): 103 mg
- Regrowth (fresh weight mg) ([2]; quizalofop, safener seed treatment 2 g/kg of seed): 80 mg
- Regrowth (fresh weight mg) ([3]; tank mix with propaquizafop 50 g/ha, safener 12.5 g/ha): 38 mg
- Regrowth (fresh weight mg) ([3]; tank mix with propaquizafop 50 g/ha, safener 25 g/ha): 258 mg
- Regrowth (fresh weight mg) ([3]; tank mix with propaquizafop 50 g/ha, safener 50 g/ha): 310 mg
- Regrowth (fresh weight mg) ([3]; tank mix with propaquizafop 50 g/ha, safener 100 g/ha): 488 mg
- Regrowth (fresh weight mg) ([3]; tank mix with quizalofop 40 g/ha, safener 12.5 g/ha): 87 mg
- Regrowth (fresh weight mg) ([3]; tank mix with quizalofop 40 g/ha, safener 25 g/ha): 285 mg
- Regrowth (fresh weight mg) ([3]; tank mix with quizalofop 40 g/ha, safener 50 g/ha): 335 mg
- Regrowth (fresh weight mg) ([3]; tank mix with quizalofop 40 g/ha, safener 100 g/ha): 462 mg
- regrowth of the mutant rice (mutant rice; high light intensity, quizalofop with isoxadifen, any of the rates tested): regrowth was not significant affected
- Regrowth (mg FW) (mutant rice; high light intensity, with safener, herbicide 0 g/ha): 540 mg FW
- reduction in growth of the mutant rice (mutant rice; low light intensity, 40 g/ha quizalofop with 100 g/ha isoxadifen): less than 20%
- Regrowth (mg FW) (mutant rice; low light intensity, with safener, herbicide 0 g/ha): 183 mg FW
